Assay results taken from patent US8017786B2, “Substituted β-phenyl-α-hydroxy-propanoic acid, synthesis method and use thereof” (Northwest University, priority 2006, dated 2011).

Assays:
Assay type in all cases: in vivo, rat
[1] = tested on: rats with middle cerebral artery occlusion; test: Cerebral microcirculatory blood flow in rats with middle cerebral artery occlusion; details: 1 mL/kg ip
Method: 60 SD rats with a body weight of 220±20 g were randomly divided into normal control group, model control group, salvianic acid injection group (ip. 1 mL/kg), and group of bornyl β-(3,4-dihydroxylphenyl)-α-hydroxylpropionate ester at a small, middle and large dose respectively (ip. 5, 15, and 35 mg/kg). The rats of normal group and model group were administered with equal-volume of physiologic saline by ip. The rats were anesthetized by intraperitoneal injection of 1% pentobarbital sodium at an amount of 40 mg/kg, then placed at supine position, head fixed, and cut skin along cervical middle line. Trachea cannula, was inserted into the rats and they were allowed to spontaneous respire. Right common jugular vein and common carotid artery were isolated and a suture was introduced for later use. Animals were fixed on a rat stereotaxic apparatus, a cranial window with a size of 6×8 mm was opened at the right temple with a dental drill, after hemostasis, cerebral dura mater was cut open with scissors to expose cerebral pia mater. The window was covered and sealed with glass and dental cement, and the laser probe of a laser-doppler microcirculatory blood flow meter was fixed on the cranial window. Then the animals were fixed at lateral position, the right common carotid artery was lifted, ligated at the proximal part and carefully cut with scissors, a nylon suture having a diameter of about 0.3 mm was introduced into the artery. The distance between the artery cut and the paropia of the rats was marked before the suture was introduced. […] When the suture arrived at middle cerebral artery, an abrupt decrease of the microcirculatory blood flow would be observed. After the observation of a decrease in the microcirculatory blood flow, the suture was further penetrated by about 1 mm, and the distal end of the cut and the suture in the artery were ligated securely. Spare suture was cut-off. After the end of the test, it was checked whether the nylon suture blocked the initiation site of the middle cerebral artery, and the data of any animal whose artery was not blocked were cancelled. The animals of the control group were not treated. After the cranial window was prepared, the probe of J I2200 type laser-doppler microcirculatory blood flow meter was fixed at the cranial window, and the probe was maintained without displacement and rotation during the whole test. The microcirculatory blood flows before ligation and 5, 15, 30, 45 and 60 min after ligation were recorded, and the data of the animals in the drug-treatment groups were recorded at the same time points. The mean microcirculatory blood flow observed within 1 min at each time point was designated as the microcirculatory blood flow of the respective time point.

[2] = tested on: rats with cardiac ischemia reperfusion (I/R) injury; test: Myocardial infarction areas caused by cardiac muscle I/R; details: 1 mL/kg, 5 days; ischemia 30 min, reperfusion 30 min
Method: (§1) 52 SD rats having a body weight of 220±20 g were randomly divided into model control group, salviannic acid injection group (in 1 mL/kg), and group of bornyl β-(3,4-dihydroxylphenyl)-α-hydroxylpropionate ester at a small, middle and large dose (ip 5, 15, 35 mg/kg). The rats of the normal group and the model control group were ip administered with equal-volume of physiologic saline. The rats of all groups were administered for consecutive 5 days. When the rats were administered for the last time, they were simultaneously anesthetized with 1.5% pentobarbital sodium (ip 45 mg/kg), then a catheter was inserted into the right carotid artery, and connected via a transducer to an eight-channeled physiological recorder. Tracheal cannula was performed, and the ventilation rate was maintained at 60 times/min. The chest was opened, a 6/0 suture was used to form a loop at a site 1˜2 mm from the root of the anterior descending coronary artery, and a plastic pipe was introduced through the loop, then the loop was tightened up. The change of electrocardiogram was observed. An increase or decrease of ST indicated the success of ligation. The color of the myocardial tissue below the ligation suture became darker. 30 minutes later, the plastic pipe was pulled out to allow coronary artery blood flowing again and cause hyperemia of local tissue during reperfusion. For the groups subjected to ischemia for 30 min and reperfusion for 30 min, the myocardial infarction areas were recorded before the test, after ischemia for 1 min and 30 min, and after reperfusion for 30 min; for the groups subjected to ischemia for 30 min and reperfusion for 2 h, cardiac tissue samples were taken and fixed using 10% formalin, embedded with paraffin, serially sliced into sections with a thickness of 4 μm, and separately subjected to immunohistochemistry tests; the rats of the sham operation group were subjected only to the introduction of suture but their coronary arteries were not ligated.
After the rats were subjected to ischemia and reperfusion for 30 minutes, their anterior descending coronaries were ligated again, then they were sacrificed, their hearts were removed promptly, and 0.5 mL of 1% evans blue was injected into heart chambers via aorta to distinguish the ischemic regions and the non-ischemic regions. After the heart atrium and right ventricle were cut-off, the heart was refrigerated at −20° C. for 30 min, then placed in a tailor-made slice groove, and cut along the long axis to form 2 mm slices. The slices were immersed in 1% TTC phosphoric acid buffer solution (pH7.4), and incubated at 37° C. for 30 min to distinguish risky regions and necrotic regions. Then the slices were fixed with 10% formaldehyde for 24 h to enhance staining color for contrast photography. After the above treatment, the myocardial tissue was divided into: normal myocardia in blue, ischemic myocardia in light red, and necrotic myocardion in gray. A computer image analysis software was used to calculate the percentage of the area of the infarct myocardial region (nec) based on the area of the risky myocardial region (aar, i.e., ischemic myocardia, including ischemic infarct region and ischemic non-infarct region) (nec/aar), and the percentage of the area of the infarct myocardial region based on the whole area of the myocardia (nec/lv) to indicate the degree of infarct, as well as the percentage of the area of the risky myocardia based on the area of the left ventricle (aar/lv).

Bax = test: Immunohistochemistry protein expression in I/R myocardial tissue: Bax; details: 1 mL/kg, 5 days; ischemia 30 min, reperfusion 2 h
Method: as §1
(§2) Standard immunohistochemistry ABC and SP methods were employed for staining. Bax: anti-rabbit polyclonal antibody (Santa CruzBio. Inc.) at a dilution of 1:200; […]: anti-rabbit polyclonal antibody (TBD Tianjin Biotechnological Center). At a dilution of […]; caspase-3: anti-rabbit polyclonal antibody (Normarkers Fromont, Calif.), at a dilution of 1:200; MMP-2: anti-murine monoclonal antibody (NormarkersFromont, Calif.) at a dilution of 1:200; PPARγ: anti-caprine polyclonal antibody (Santa Cruz Bio. Inc.), at a dilution of 1:500. The specific procedures were performed in accordance with the instructions of the ABC and SP kits, DAB was used for color development, and neutral resin was used for mounting. PBS was used instead of the first antibody as a negative control. Cells with positive expression of the test polypeptides were of brown-yellow color, with MMP-2 protein being present in acytoplasm, Bcl-2 expressed in nuclear membrane and cytoplasm, Bax mainly in cytoplasm and partially in nucleus, and caspase-3 mainly in nucleus and partially in cytoplasm. CMIAS image analysis system was used for random selection of fields of slices and automatic selection of sites for analysis, and statistic analysis was performed by using mean optical density values or integral optical density values of the obtained myocardial tissue slices.

Bcl-2 = test: Immunohistochemistry protein expression in I/R myocardial tissue: Bcl-2; details: 1 mL/kg, 5 days; ischemia 30 min, reperfusion 2 h
Method: as §1, §2

caspase-3 = test: Immunohistochemistry protein expression in I/R myocardial tissue: caspase-3; details: 1 mL/kg, 5 days; ischemia 30 min, reperfusion 2 h
Method: as §1, §2

MMP-2 = test: Immunohistochemistry protein expression in I/R myocardial tissue: MMP-2; details: 1 mL/kg, 5 days; ischemia 30 min, reperfusion 2 h
Method: as §1, §2

PPARγ = test: Immunohistochemistry protein expression in I/R myocardial tissue: PPARγ; details: 1 mL/kg, 5 days; ischemia 30 min, reperfusion 2 h
Method: as §1
Standard immunohistochemistry ABC and SP methods were employed for staining. Bax: anti-rabbit polyclonal antibody (Santa CruzBio. Inc.) at a dilution of 1:200; […]: anti-rabbit polyclonal antibody (TBD Tianjin Biotechnological Center). At a dilution of […]; caspase-3: anti-rabbit polyclonal antibody (Normarkers Fromont, Calif.), at a dilution of 1:200; MMP-2: anti-murine monoclonal antibody (NormarkersFromont, Calif.) at a dilution of 1:200; PPARγ: anti-caprine polyclonal antibody (Santa Cruz Bio. Inc.), at a dilution of 1:500. The specific procedures were performed in accordance with the instructions of the ABC and SP kits, DAB was used for color development, and neutral resin was used for mounting. PBS was used instead of the first antibody as a negative control. […]

Compound `O=C(O)C(O)Cc1ccc(O)c(O)c1` (stereo not drawn) [Salvianic acid, β-(3,4-dihydroxyphenyl)-α-hydroxyl-propionic acid, reference compound] has a Microcirculatory blood flow ([1]; 5 min after ligation) of 10.8 ± 3.6 mL, a Microcirculatory blood flow ([1]; 15 min after ligation) of 20.1 ± 6.9 mL and a Microcirculatory blood flow ([1]; 30 min after ligation) of 31.2 ± 9.5 mL. For the same compound, the Microcirculatory blood flow ([1]; 45 min after ligation) was 33.0 ± 6.8 mL, the Microcirculatory blood flow ([1]; 60 min after ligation) was 29.4 ± 6.9 mL and the aar/lv [2] was 50.21 ± 7.10 %. For the same compound, the nec/aar [2] was 49.87 ± 7.83 %, the nec/lv [2] was 41.41 ± 5.49 % and the “Bax protein expression, OD value” (Bax) was 0.08 ± 0.02. For the same compound, the “Bcl-2 protein expression, OD value” (Bcl-2) was 0.18 ± 0.04, the “Caspase-3 protein expression, OD value” (caspase-3) was 0.21 ± 0.12 and the “MMP-2 protein expression, OD value” (MMP-2) was 0.12 ± 0.05. The “PPARγ protein expression, OD value” (PPARγ) was 0.34 ± 0.08.
